From patent publication US20240158446A1, “CYCLIC COMPOUND HAVING SELECTIVE INHIBITORY ACTION ON KRAS OVER HRAS AND NRAS” (CHUGAI SEIYAKU KABUSHIKI KAISHA, priority 2021, published 2024)
Read-outs that look alike come from different tables or passages of the source. *1 amine or outer side, *2 acyl side, *3 side chain or, on linkers, in order; H or OH if unused. Where a SMILES comes first, the peptide text is derived from it. Bridges are numbered along the chain shown (N, C = ends). [ ]: non-standard residue; d: D form. The star is where a group is joined. hPhe(3-Cl-4-CF3) = N[C@@H](CCc1ccc(C(F)(F)F)c(Cl)c1)C(=O)O; NPrPhe(4-CF3) = CCCN[C@@H](Cc1ccc(C(F)(F)F)cc1)C(=O)O; NMeGly(cPent) = CN[C@H](C(=O)O)C1CCCC1; NMeD = CN[C@@H](CC(=O)O)C(=O)O; NMeL = CN[C@@H](CC(C)C)C(=O)O; X12 = N#CCN(CC(=O)[*:2])[*:1]; Morpholide = C1CN(*)CCO1; NMeA = CN[C@@H](C)C(=O)O; Ac5c = NC1(C(=O)O)CCCC1; Aze = O=C(O)[C@@H]1CCN1; Ac4c = NC1(C(=O)O)CCC1; Sar = CNCC(=O)O

Experiments:
[1] = target: GDP-bound HRAS wild-type protein (Homo sapiens, UniProt P01112); assay: Binding to HRAS by surface plasmon resonance (SPR), Single Cycle Kinetics
Chain of GDP-bound HRAS wild-type protein (P01112 whole entry): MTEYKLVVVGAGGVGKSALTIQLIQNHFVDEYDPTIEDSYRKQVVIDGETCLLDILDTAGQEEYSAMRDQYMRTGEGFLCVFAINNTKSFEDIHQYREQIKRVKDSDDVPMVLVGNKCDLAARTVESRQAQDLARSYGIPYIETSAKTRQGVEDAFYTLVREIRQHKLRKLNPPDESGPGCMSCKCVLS

[2] = target: GDP-bound KRAS wild-type protein (Homo sapiens, UniProt P01116); assay: Binding to KRAS by surface plasmon resonance (SPR), Single Cycle Kinetics; conditions: GDP-bound KRAS wild-type protein, read-out: KRAS KD
Chain of GDP-bound KRAS wild-type protein (P01116 whole entry): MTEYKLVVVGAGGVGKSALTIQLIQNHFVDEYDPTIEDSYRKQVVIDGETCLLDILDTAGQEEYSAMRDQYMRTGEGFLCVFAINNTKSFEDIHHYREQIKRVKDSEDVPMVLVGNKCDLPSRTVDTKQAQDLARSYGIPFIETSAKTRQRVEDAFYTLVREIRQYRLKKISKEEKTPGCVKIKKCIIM

[3] = target: GDP-bound NRAS wild-type protein (Homo sapiens, UniProt P01111); assay: Binding to NRAS by surface plasmon resonance (SPR), Single Cycle Kinetics
Chain of GDP-bound NRAS wild-type protein (P01111 whole entry): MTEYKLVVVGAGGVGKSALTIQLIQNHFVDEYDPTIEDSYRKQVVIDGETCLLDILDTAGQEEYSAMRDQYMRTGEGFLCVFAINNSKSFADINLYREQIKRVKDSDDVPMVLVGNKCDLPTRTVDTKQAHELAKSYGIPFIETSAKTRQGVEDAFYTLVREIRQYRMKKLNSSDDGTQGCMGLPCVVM

[4] = SPR, GDP-bound HRAS wild-type protein vs GDP-bound KRAS wild-type protein
[5] = SPR Single Cycle Kinetics, 1:1 binding model
[6] = SPR, GDP-bound NRAS wild-type protein vs GDP-bound KRAS wild-type protein

Row | Kd [2, 5] [nM] | Kd ([2]; SPR, Single Cycle Kinetics) [nM] | Structure (SMILES) | HRAS/KRAS (ratio of KD value for HRAS to KD value for KRAS) [1, 4] | NRAS/KRAS (ratio of KD value for NRAS to KD value for KRAS) [3, 6] | HRAS/KRAS (ratio of KD value with respect to GDP-bound HRAS wild-type protein to KD value with respect to KRAS) ([1]; SPR KD ratio HRAS/KRAS, class symbols) | NRAS/KRAS (ratio of KD value with respect to GDP-bound NRAS wild-type protein to KD value with respect to KRAS) ([3]; SPR KD ratio NRAS/KRAS, class symbols) | HRAS/KRAS (ratio of KD value with respect to HRAS to KD value with respect to KRAS) [1, 4] | NRAS/KRAS (ratio of KD value with respect to NRAS to KD value with respect to KRAS) [3, 6]
1 | 0.19 |  | CCCN1C(=O)[C@@H]2CCN2C(=O)[C@H](C)N(C)C(=O)[C@H]([C@@H](C)CC)NC(=O)[C@H](CC(C)C)N(C)C(=O)C[C@@H](C(=O)N2CCOCC2)N(C)C(=O)[C@H](C2CCCC2)N(C)C(=O)C2(CCC2)NC(=O)[C@@H]2CCCN2C(=O)[C@H](CCc2ccc(C(F)(F)F)c(Cl)c2)NC(=O)CN(C)C(=O)[C@@H]1Cc1ccc(C(F)(F)F)cc1 [PP0198] ([NMeL]I[NMeA][Aze][NPrPhe(4-CF3)][Sar][hPhe(3-Cl-4-CF3)]P[Ac4c][NMeGly(cPent)][NMeD]-Morpholide; lactam N-11) | B (a compound having 3 or more and less than 10 is denoted as B) | C (A compound having a KD ratio of 0.1 or more and less than 3 is denoted as C) |  |  |  | 
2 | 0.3 |  | CCCN1C(=O)[C@@H]2CCN2C(=O)CN(CC#N)C(=O)[C@H]([C@@H](C)CC)NC(=O)[C@H](CC(C)C)N(C)C(=O)C[C@@H](C(=O)N2CCOCC2)N(C)C(=O)[C@H](C2CCCC2)N(C)C(=O)C2(CCCC2)NC(=O)[C@@H]2CCCN2C(=O)[C@H](CCc2ccc(C(F)(F)F)c(Cl)c2)NC(=O)CN(C)C(=O)[C@@H]1Cc1ccc(C(F)(F)F)cc1 [PP0275] ([NMeL]I[X12][Aze][NPrPhe(4-CF3)][Sar][hPhe(3-Cl-4-CF3)]P[Ac5c][NMeGly(cPent)][NMeD]-Morpholide; lactam N-11) | C (A compound having a KD ratio of 0.1 or more and less than 3 is denoted as C) | C (A compound having a KD ratio of 0.1 or more and less than 3 is denoted as C) |  |  |  | 
3 | 0.36 |  | CCC[C@H]1C(=O)N[C@@H]([C@@H](C)CC)C(=O)N(C)CC(=O)N(C)[C@H]2C/C=C\CCN(C2=O)[C@@H](Cc2ccc(C)cc2)C(=O)N(C)CC(=O)N[C@@H](CCc2ccc(Cl)c(C(F)(F)F)c2)C(=O)N2C[C@H](OCC)C[C@H]2C(=O)NC2(CC(C)(C)C2)C(=O)N(C)[C@@H](C(CC)CC)C(=O)N(C)[C@H](C(=O)N(C)C)CC(=O)N1C [PP2787] |  |  | A (a compound having 10 or more and less than 20 is denoted as A) | AA (a compound having 20 or more is denoted as AA) |  | 
4 | 3.2 |  | CC[C@H](C)[C@@H]1NC(=O)[C@H](CC(C)C)N(C)C(=O)C[C@@H](C(=O)N2CCOCC2)N(C)C(=O)[C@H](C2CCCC2)N(C)C(=O)C2(CCCC2)NC(=O)[C@@H]2CCCN2C(=O)[C@H](CCc2cc(F)c(C(F)(F)F)c(F)c2)NC(=O)CN(C)C(=O)[C@H](Cc2ccc(C(F)(F)F)cc2)N2CCCCC[C@@H](C2=O)N(C)C(=O)[C@@H]2CCN2C1=O [PP0484] |  |  |  |  | B (a compound having 3 or more and less than 10 is denoted as B) | A (a compound having 10 or more and less than 20 is denoted as A)
5 |  | 0.082 | CCC[C@H]1C(=O)N[C@@H]([C@@H](C)CC)C(=O)N(C)CC(=O)N(C)[C@H]2C/C=C\CCN(C2=O)[C@@H](Cc2ccc(C)cc2)C(=O)N(C)CC(=O)N[C@@H](CCc2ccc(C(F)(F)F)c(Cl)c2)C(=O)N2C[C@H](OCC)C[C@H]2C(=O)NC2(CC(C)(C)C2)C(=O)N(C)[C@@H](CC(C)(C)C)C(=O)N(C)[C@H](C(=O)N(C)C)CC(=O)N1C [PP2230] | A (a compound having 10 or more and less than 20 is denoted as A) | A (a compound having 10 or more and less than 20 is denoted as A) |  |  |  | 
6 |  | 0.034 | CC[C@H](C)[C@@H]1NC(=O)[C@@H]2CCCCCCc3ccc(cc3)C[C@@H](C(=O)N(C)CC(=O)N[C@@H](CCc3ccc(C(F)(F)F)c(OC)c3)C(=O)N3CC4(CC4)C[C@H]3C(=O)NC3(CC(C)(C)C3)C(=O)N(C)[C@@H](C3CCCC3)C(=O)N(C)[C@H](C(=O)N(C)C)CC(=O)N2C)N2CC/C=C\C[C@@H](C2=O)N(C)C(=O)CN(C)C1=O [PP3069] | B (a compound having 3 or more and less than 10 is denoted as B) | A (a compound having 10 or more and less than 20 is denoted as A) |  |  |  | 
